Laboratory results reported in ChEMBL document CHEMBL1795277, “Synthesis of novel pyrazolo[1,5-a]pyrazin-4(5H)-one derivatives and their inhibition against growth of A549 and H322 lung cancer cells” (Bioorg Med Chem Lett, 2011).
Activity calls are given as the source filed them. The rule behind the calls is not given here.

Assays:
Format in all cases: functional, cell-based
NCI-H322 [1] = test: Cytotoxicity against human NCI-H322 cells assessed as cell growth inhibition at 40 uM after 48 hrs by SRB assay
NCI-H322 [2] = test: Induction morphological changes in human NCI-H322 cells at 40 uM after 48 hrs by inverted microscopic analysis
A549 [3] = test: Cytotoxicity against human A549 cells assessed as cell growth inhibition at 40 uM after 48 hrs by SRB assay
A549 [4] = test: Induction morphological changes in human A549 cells at 40 uM after 48 hrs by inverted microscopic analysis
A549 [5] = test: Induction necrosis in human A549 cells at 40 uM after 48 hrs by LDH release assay
A549 [6] = test: Cytotoxicity against human A549 cells assessed as cell growth inhibition after 48 hrs by SRB assay; settings: for IC50: A549, 48 h
A549 [7] = test: Cytotoxicity against human A549 cells assessed as reduction of total cell quantity at 40 uM after 48 hrs by inverted microscopic analysis
NCI-H322 [8] = test: Cytotoxicity against human NCI-H322 cells assessed as reduction of total cell quantity at 40 uM after 48 hrs by inverted microscopic analysis
NCI-H322 [9] = test: Induction necrosis in human NCI-H322 cells at 40 uM after 48 hrs by LDH release assay
NCI-H322 [10] = test: (§1) Cytotoxicity against human NCI-H322 cells assessed as cell growth inhibition after 48 hrs by SRB assay
[11] = as §1; settings: NCI-H322, 48 h

SMILES	growth inhibition (GI) (NCI-H322 [1])	Activity (NCI-H322 [2])	growth inhibition (GI) (A549 [3])	Activity (A549 [4])	Activity (A549 [5])	growth inhibition (GI) (A549 [6])	IC50 (A549 [6])	Activity (A549 [7])	Activity (NCI-H322 [8])	Activity (NCI-H322 [9])	growth inhibition (GI) (NCI-H322 [10])	IC50 [11]
COc1ccc(-c2cc3c(=O)n(CCOCCO)c(-c4ccc(OC)cc4)cn3n2)cc1	Active	Active	Active	Active	inactive	Dose-dependent effect	34.7 µM	Active	Active	inactive	Dose-dependent effect	50.6 µM
O=c1c2cc(-c3ccccc3)nn2cc(-c2ccccc2)n1CCOCCO	Active	Active	Active	Active	inactive	Dose-dependent effect	41.1 µM	Active	Active	inactive	Dose-dependent effect	45.6 µM
COc1ccc(-c2cc3c(=O)n(CCOCCO)c(-c4ccc(Cl)cc4)cn3n2)cc1	Active		Active				49.7 µM					76.9 µM
COc1ccc(-c2cn3nc(-c4ccccc4)cc3c(=O)n2CCOCCO)cc1	Active		Active				59 µM					74.7 µM
O=c1c2cc(-c3ccc(Cl)cc3)nn2cc(-c2ccccc2)n1CCOCCO	Active	Active	Active	Active	inactive	Dose-dependent effect	24.2 µM	Active	Active	inactive	Dose-dependent effect	29.4 µM
COc1ccc(-c2cc3c(=O)n(CCOCCO)c(-c4ccccc4)cn3n2)cc1	Active		Active				50.3 µM					68.7 µM
O=c1c2cc(-c3ccccc3)nn2cc(-c2ccc(Cl)cc2)n1CCOCCO	Active		Active				62.6 µM					91 µM
